Assay results: patent US5015631A, “Repairing agent for cells and tissues” (MECT Corporation, priority 1987, dated 1991)

Test system: mice
Assay: Simple acute toxicity test by intravenous injection in mice
Assay type: in vivo, Male ddy mice
Conditions: for Final death rate / Number of death with the elapse of time: 3 mice
Description: Simple acute toxicity test:
Simple acute toxicity tests of the materials were conducted by intraveous injections for the mice as follows:
Lithium, potassium, barium and magnesium N-acetylneuraminates (products of MECT Corporation) were used.
Weight of the animal in the initial stage of the test: 17.7 to 21.1 g
Number of mice for each level: 3
(3) Room temperature: 23±1° C., humidity: 55±7%
(4) Route of administration: intravenous injection
The material was dissolved in the physiological saline. The concentration of the dose solution was adjusted so that 0.2 ml of the dose solution was administered per 20 g of the body weight of the mice. The solution was given to a tail of each mouse by the intravenous injection. The dose was 500, 1000 or 2000 mg/kg.
The general symptoms and death were observed from immediately after the administration to seven days after the administration.

SMILES | Final death rate (500 mg/kg i.v.) | Number of death with the elapse of time (500 mg/kg i.v., 1 hr) | Number of death with the elapse of time (500 mg/kg i.v., 3 hrs) | Number of death with the elapse of time (500 mg/kg i.v., 6 hrs) | Number of death with the elapse of time (500 mg/kg i.v., 24 hrs) | Number of death with the elapse of time (500 mg/kg i.v., 2 days) | Number of death with the elapse of time (500 mg/kg i.v., 3 days) | Number of death with the elapse of time (500 mg/kg i.v., 4 days) | Number of death with the elapse of time (500 mg/kg i.v., 5 days) | Number of death with the elapse of time (500 mg/kg i.v., 6 days) | Number of death with the elapse of time (500 mg/kg i.v., 7 days) | Final death rate (1000 mg/kg i.v.) | Number of death with the elapse of time (1000 mg/kg i.v., 1 hr) | Number of death with the elapse of time (1000 mg/kg i.v., 3 hrs) | Number of death with the elapse of time (1000 mg/kg i.v., 6 hrs) | Number of death with the elapse of time (1000 mg/kg i.v., 24 hrs) | Number of death with the elapse of time (1000 mg/kg i.v., 2 days) | Number of death with the elapse of time (1000 mg/kg i.v., 3 days) | Number of death with the elapse of time (1000 mg/kg i.v., 4 days) | Number of death with the elapse of time (1000 mg/kg i.v., 5 days) | also measured
CC(=O)N[C@H]1[C@H]([C@H](O)[C@H](O)CO)OC(O)(C(=O)[O-])C[C@@H]1O.[Li+] (stereo partly drawn) [Lithium N-acetylneuraminate] | 0/3 | 0 | 0 | 0 | 0 | 0 | 0 | 0 | 0 | 0 | 0 | 0/3 | 0 | 0 | 0 | 0 | 0 | 0 | 0 | 0 | Number of death with the elapse of time (1000 mg/kg i.v., 6 days): 0; Number of death with the elapse of time (1000 mg/kg i.v., 7 days): 0; Final death rate (2000 mg/kg i.v.): 0/3; Number of death with the elapse of time (2000 mg/kg i.v., 1 hr): 0; Number of death with the elapse of time (2000 mg/kg i.v., 3 hrs): 0; Number of death with the elapse of time (2000 mg/kg i.v., 6 hrs): 0; Number of death with the elapse of time (2000 mg/kg i.v., 24 hrs): 0; Number of death with the elapse of time (2000 mg/kg i.v., 2 days): 0; Number of death with the elapse of time (2000 mg/kg i.v., 3 days): 0; Number of death with the elapse of time (2000 mg/kg i.v., 4 days): 0; Number of death with the elapse of time (2000 mg/kg i.v., 5 days): 0; Number of death with the elapse of time (2000 mg/kg i.v., 6 days): 0; Number of death with the elapse of time (2000 mg/kg i.v., 7 days): 0
CC(=O)N[C@H]1[C@H]([C@H](O)[C@H](O)CO)OC(O)(C(=O)O)C[C@@H]1O (stereo partly drawn) [Magnesium N-acetylneuraminate] | 0/3 | 0 | 0 | 0 | 0 | 0 | 0 | 0 | 0 | 0 | 0 |  |  |  |  |  |  |  |  |  | 
CC(=O)N[C@H]1[C@H]([C@H](O)[C@H](O)CO)OC(O)(C(=O)[O-])C[C@@H]1O.[K+] (stereo partly drawn) [Potassium N-acetylneuraminate] | 0/3 | 0 | 0 | 0 | 0 | 0 | 0 | 0 | 0 | 0 | 0 | 3/3 | 3 | 0 | 0 | 0 | 0 | 0 | 0 | 0 | Number of death with the elapse of time (1000 mg/kg i.v., 6 days): 0; Number of death with the elapse of time (1000 mg/kg i.v., 7 days): 0; Death (1000 mg/kg or 2000 mg/kg i.v.): all of the three mice died; Final death rate (2000 mg/kg i.v.): 3/3; Number of death with the elapse of time (2000 mg/kg i.v., 1 hr): 3; Number of death with the elapse of time (2000 mg/kg i.v., 3 hrs): 0; Number of death with the elapse of time (2000 mg/kg i.v., 6 hrs): 0; Number of death with the elapse of time (2000 mg/kg i.v., 24 hrs): 0; Number of death with the elapse of time (2000 mg/kg i.v., 2 days): 0; Number of death with the elapse of time (2000 mg/kg i.v., 3 days): 0; Number of death with the elapse of time (2000 mg/kg i.v., 4 days): 0; Number of death with the elapse of time (2000 mg/kg i.v., 5 days): 0; Number of death with the elapse of time (2000 mg/kg i.v., 6 days): 0; Number of death with the elapse of time (2000 mg/kg i.v., 7 days): 0
